# Results taken from patent publication US20220105058A1, “USE OF 3-O-SULFAMATE-16,16-DIMETHYL-D-HOMOEQUILENIN TO TREAT ONCOLOGICAL DISEASES” (priority 2018, published 2022).
# Where “and” joins values, the source holds several entries; their conditions need not be identical. Equal values may be shown once. Read-outs that look alike come from different tables or passages of the source.
# Experiments:
# [1] = body weight and tolerability during the antitumor study
# Description: The study medicament was administered i.g. using a metal atraumatic gavage (with the procedure corresponds to the oral route of administration in clinical settings). The medicament was administered in a single daily dose (20 mg/kg of body weight) and 5-fold daily dose of 100 mg/kg of body weight. Ex tempore solutions of the medicament for administration were prepared in olive oil (refined olive oil supplemented with unrefined extra virgin olive oil available under Global Village “Clasico” trademark, lot L:183351116, expiry date 26 Apr. 2020, BAIEO, Spain). The administered volume was 0.1 ml per 10 g of a mouse body weight (0.2 ml of a ready-to-use formulation for a mouse of 20 g). The medicament administration was started 24 hours after the randomization. The duration of the administration course was 27-28 days.
# This dose corresponds to a human daily dose of 20 mg/kg.
# The evaluation criteria included the clinical observation data, animals body weights, time of death (if applicable), tumor growth over time, pathomorphological examination data (verification of a neoplasm during autopsy, assessment of toxic effects by macroscopic presentation of changes in the internal organs).
# The animals body weights were recorded before the first administration of the medicaments and then twice per week using a verified high-speed electronic laboratory balance Ohaus Scout Pro (USA) with a maximum load of 2000 g and a measurement step of 0.1 g.
# [2] = system: subcutaneous xenografts of human TNBC-Kad breast cancer
# Description: (§1) A comparative study of the medicaments in vivo was performed in female Balb/c nude mice with subcutaneously (s.c.) transplanted tumor cells. The experiment lasted for 29 days after the medicament administration for the first time (the administration of the medicaments was started on Day 5 after the tumor strain transplantation).
# (§2) The medicament and the reference drug were administered intragastrically multiple times at doses of 30 mg/kg and 10 mg/kg daily for 21 days.
# (§3) The placebo group was given 1% starch solution intragastrically in equivalent volumes and in the same regime. Tumor nodes were measured 2 times per week. […] Once the treatment was completed, the last tumor measurement was carried out, and animals were weighed and euthanized.
# (§4) The animals were weighed on the first day of the experiment, and then 2 times per week throughout the experiment according to the research protocol.
# (§5) A tumor node was measured after tumor transplantation 2 times per week throughout the experiment. The tumor node volume was determined by the formula:
# (§6) V=π/6*L*W*H, where L, W, H are the linear size dimensions of the tumor.
# (§7) Determination of Antitumor Activity
# (§8) Tumor growth inhibition index (TGI) was used as a criterion for the study of the medicament efficacy and calculated by the formula as follows:
# (§9) TGI (%)=|Vctrl−Vexp|/Vctrl*100
# (§10) where Vctrl and Vexp are the average tumor volume (mm^3) in the control and in the experimental groups, respectively.
# (§11) After the course of the treatment, the animals were euthanized by the cervical dislocation of cervical vertebrae.
# (§12) The statistical data processing was conducted using SPSS 21 package (license No. 20130626-3). Descriptive statistics in the study includes the following: arithmetic average, standard deviation (SD), standard mean error (SE), median, quartiles, interquartile range. To compare quantitative characteristics in the groups, the Mann-Whitney-Wilcoxon test was used without corrections for multiple comparisons. The results were considered statistically significant at p<0.05.
# [3] = system: subcutaneous xenografts of human SKBR-3 breast cancer
# Description: as §1, §2, §3, §4, §5, §6, §7, §8, §9, §10, §11, §12
# [4] = system: MCF-7 human cells culture (breast adenocarcinoma); experiment: proliferation of passaged MCF-7 cell culture; assay type: cell-based
# Description: The study analysis was carried out on an passaged MCF-7 human cells culture culture (breast adenocarcinoma). Normal human dermal fibroblasts (HDF) of early passages were used as a negative control. The cells were cultivated in Carrel vials in DMEM/F12 medium (Biolot) with 1.0% of antibiotic-free fetal bovine embryonic serum (Biolot) added in the 5% CO2 atmosphere, at 37° C.
# The cells were seeded on Carrel vials at 50×10^4 cells per flask. To study the proliferative activity of the cells under conditions of sulfatase inhibition, 24 hours after seeding the culture medium […], and then these tumor cell lines were incubated for various periods of time (24 to 72 hrs). The inhibitor was dissolved in DMSO. […] To exclude the cytotoxic effect of DMSO, a control sample comprising DMSO without sulfatase inhibitor was prepared. To exclude nonspecific detrimental effects of the compounds, normal human skin fibroblasts were used. Then the cells were detached with the versene-trypsin solution (Biolot), plated onto Carrel vials containing a fresh complete culture medium. The cells were counted when untreated control cells reached the maximum cell density per unit of surface area of a culture flask (monolayer), and their number was set as 100%. The proliferative activity of all of the studied cell cultures exposed to sulfatase inhibitors was determined in triplicate.
# [5] = pilot experiment, medicament 10 mg/kg, Day 10
compound,measurement,setting,value
"CC1(C)CC(=O)[C@@]2(C)CCc3c(ccc4cc(OS(N)(=O)=O)ccc34)[C@@H]2C1 [medicament, 3-O-sulfamate-16,16-dimethyl-D-homoequilenin]",signs of toxic damage to internal organs at autopsy,[1]; end of the experiment,No specific signs of toxic damage to internal organs were found
same,clinical signs of toxicity,"[1]; mouse, in vivo",no clinical signs of toxicity being observed
same,number of dead mice before the end of the observation period,[2]; medicament 10 mg/kg,10 out of 10
same,average tumor volume (M ± m),"[2]; medicament 10 mg/kg, Day 3",5.65 ± 1.64 mm^3
same,"TNBC_Kad growth inhibition, TGI","[2]; medicament 10 mg/kg, Day 7",66.1%
same,average tumor volume (M ± m),"[2]; medicament 10 mg/kg, Day 7",27.0±5.1 mm^3 and 26.98 ± 5.12 mm^3
same,"TNBC_Kad growth inhibition, TGI","[2]; medicament 10 mg/kg, Day 10",78.7%
same,average tumor volume (M ± m),"[2]; medicament 10 mg/kg, Day 10",21.6±4.9 mm^3 and 21.59 ± 4.88 mm^3
same,"TNBC_Kad growth inhibition, TGI","[2]; medicament 10 mg/kg, Day 14",83.1%
same,average tumor volume (M ± m),"[2]; medicament 10 mg/kg, Day 14",27.6±2.6 mm^3 and 27.59 ± 2.57 mm^3
same,"TNBC_Kad growth inhibition, TGI","[2]; medicament 10 mg/kg, Day 17",76.1%
same,average tumor volume (M ± m),"[2]; medicament 10 mg/kg, Day 17",46.3±5.3 mm^3 and 46.25 ± 5.31 mm^3
same,average tumor volume (M ± m),"[2]; medicament i.g. 10 mg/kg, Day 0 of treatment",1.6±0.4 mm^3 and 1.57 ± 0.35 mm^3
same,efficacy compared with tamoxifen and letrozole,[2]; xenograft human tumor of triple negative breast cancer,more effective than tamoxifen and aromatase inhibitor letrozole
same,number of dead mice before the end of the observation period,[3]; medicament 10 mg/kg,5 out of 7
same,average tumor volume (M ± m),"[3]; medicament 10 mg/kg i.g. daily, Day 0 of treatment",1.0±0.4 mm^3
same,average tumor volume (M ± m),"[3]; medicament 10 mg/kg i.g. daily, Day 0 of treatment, listed as Steroid",1.0 ± 0.4 mm^3
same,average tumor volume (M ± m),"[3]; medicament 10 mg/kg, Day 3",1.2 ± 0.4 mm^3
same,"SKBR-3 growth inhibition, TGI","[3]; medicament 10 mg/kg, Day 7",74.3%
same,average tumor volume (M ± m),"[3]; medicament 10 mg/kg, Day 7",5.1±2.3 mm^3
same,average tumor volume (M ± m),"[3]; medicament 10 mg/kg, Day 7, listed as Steroid",5.1 ± 2.3 mm^3
same,"SKBR-3 growth inhibition, TGI","[3]; medicament 10 mg/kg, Day 10",68.0%
same,average tumor volume (M ± m),"[3]; medicament 10 mg/kg, Day 10",24.8±12.2 mm^3
same,average tumor volume (M ± m),"[3]; medicament 10 mg/kg, Day 10, listed as Steroid",24.8 ± 12.2 mm^3
same,"SKBR-3 growth inhibition, TGI","[3]; medicament 10 mg/kg, Day 14",94.3%
same,average tumor volume (M ± m),"[3]; medicament 10 mg/kg, Day 14",6.9±2.2 mm^3
same,average tumor volume (M ± m),"[3]; medicament 10 mg/kg, Day 14, listed as Steroid",6.9 ± 2.2 mm^3
same,"SKBR-3 growth inhibition, TGI","[3]; medicament 10 mg/kg, Day 17",90.6%
same,average tumor volume (M ± m),"[3]; medicament 10 mg/kg, Day 17",17.6±0.7 mm^3
same,average tumor volume (M ± m),"[3]; medicament 10 mg/kg, Day 17, listed as Steroid",17.6 ± 0.7 mm^3
same,"SKBR-3 growth inhibition, TGI","[3]; medicament 10 mg/kg, Day 21",90.2%
same,average tumor volume (M ± m),"[3]; medicament 10 mg/kg, Day 21",26.1±12.1 mm^3
same,average tumor volume (M ± m),"[3]; medicament 10 mg/kg, Day 21, listed as Steroid",26.2 ± 12.1 mm^3
same,"SKBR-3 growth inhibition, TGI","[3]; medicament 10 mg/kg, Day 24",86.3%
same,average tumor volume (M ± m),"[3]; medicament 10 mg/kg, Day 24",32.0 ± 6.9 mm^3
same,average tumor volume (Vaverage),[3]; [5],2.2±2.0 mm^3
same,maximum TGI,[3]; [5],91.2%
same,proliferation of tumor MCF-7 cells,[4],completely inhibits proliferation
same,proliferation of tumor MCF-7 cells,[4]; concentration of 20 μg/ml,completely blocks the proliferation
